Assay results: publication PMC8510344, “Bile-Acid-Appended Triazolyl Aryl Ketones: Design, Synthesis, In Vitro Anticancer Activity and Pharmacokinetics in Rats” (Molecules, 2021)

Columns and labels:
[1] = system: MCF-7 (human breast adenocarcinoma) cells; experiment: MTT cytotoxicity assay, MCF-7; type: cell-based; conditions: Homo sapiens, MCF7, 10 µM, 48 h exposure, read-out: % Cell Viability at 10 µM MCF-7
Protocol: (§1) The cytotoxicity activity of all the conjugates (6aa–6df) was evaluated in vitro by MTT assay against two different breast cancer cell lines 4T1 (murine) and MCF-7 (human) and HEK 293 (human) as normal cell line. DTX was used as positive control. Cells were grown in DMEM supplemented with 10% FBS and 1% antibiotic solution and incubated at 5% CO2 and 37 °C for 24 h. The stock solutions of all the conjugates were prepared in DMSO and diluted for further use. Briefly, 5 × 10^3 cells/well were seeded in 96-well cell culture plates and allowed to adhere for 24 h. Cell inhibition (%) was determined after 48 h exposure to the compounds at 1–25 μM concentration. After 48 h, MTT assay was performed and the yellow tetrazolium salt (MTT) was reduced in metabolically active cells to form insoluble purple formazan crystals, which were solubilized by the addition of DMSO. The optical density (OD) was recorded at 560 nm and 630 nm as reference wavelength. Percentage cell inhibition was determined by comparison with untreated cells.

[2] = system: 4T1 (mouse mammary carcinoma) cells; experiment: MTT cytotoxicity assay, 4T1; type: cell-based; conditions: Mus musculus, 10 µM, 48 h exposure, read-out: % Cell Viability at 10 µM 4T1
Protocol: as §1

[3] = MTT cytotoxicity assay, normal cell line HEK 293; type: cell-based; conditions: human, HEK 293 cells, HEK 293 normal cells, 48 h exposure
Protocol: as §1

| SMILES | viability at 10 µM [1] | viability at 10 µM [2] | viability at 48 h, 10 µM [3] | melting point |
| --- | --- | --- | --- | --- |
| C[C@H](CCC(=O)NCc1cn(CC(=O)c2ccccc2)nn1)C1CCC2C3C(C[C@H](O)[C@@]21C)[C@@]1(C)CC[C@@H](O)CC1C[C@H]3O (stereo partly drawn) [6ca, (4R)-N-((1-(2-Oxo-2-phenylethyl)-1H-1,2,3-triazol-4-yl)methyl)-4-((3R,7R,10S,12S,13R)-3,7,12-trihydroxy-10,13-dimethylhexadecahydro-1H-cyclopenta[a]phenanthren-17-yl)pentanamide] | 92.1% | 85.2% | 90.1% | 148 to 149 °C |
| Cc1ccc(C(=O)Cn2cc(CNC(=O)CC[C@@H](C)C3CCC4C5C(C[C@H](O)[C@@]43C)[C@@]3(C)CC[C@@H](O)CC3C[C@H]5O)nn2)cc1 (stereo partly drawn) [6cb, (4R)-N-((1-(2-Oxo-2-(p-tolyl)ethyl)-1H-1,2,3-triazol-4-yl)methyl)-4-((3R,7R,10S,12S,13R)-3,7,12-trihydroxy-10,13-dimethylhexadecahydro-1H-cyclopenta[a]phenanthren-17-yl)pentanamide] | 61.9% | 96.7% | 86% | 129 to 131 °C |
| C[C@H](CCC(=O)NCc1cn(CC(=O)c2ccc(F)cc2)nn1)C1CCC2C3C(C[C@H](O)[C@@]21C)[C@@]1(C)CC[C@@H](O)CC1C[C@H]3O (stereo partly drawn) [6cd, (4R)-N-((1-(2-(4-Fluorophenyl)-2-oxoethyl)-1H-1,2,3-triazol-4-yl)methyl)-4-((3R,7R,10S,12S,13R)-3,7,12-trihydroxy-10,13-dimethylhexadecahydro-1H-cyclopenta[a]phenanthren-17-yl)pentanamide] | 88.7% | 70.7% | 97.5% | 137 to 138 °C |
| C[C@H](CCC(=O)NCc1cn(CC(=O)c2ccc(Cl)cc2)nn1)C1CCC2C3C(C[C@H](O)[C@@]21C)[C@@]1(C)CC[C@@H](O)CC1C[C@H]3O (stereo partly drawn) [6ce, (4R)-N-((1-(2-(4-Chlorophenyl)-2-oxoethyl)-1H-1,2,3-triazol-4-yl)methyl)-4-((3R,7R,10S,12S,13R)-3,7,12-trihydroxy-10,13-dimethylhexadecahydro-1H-cyclopenta[a]phenanthren-17-yl)pentanamide] | 69.2% | 50.6% | 92.7% | 154 to 155 °C |
| C[C@H](CCC(=O)NCc1cn(CC(=O)c2ccccc2)nn1)C1CCC2C3CCC4C[C@H](O)CC[C@]4(C)C3C[C@H](O)[C@@]21C (stereo partly drawn) [6da, (4R)-4-((3R,10S,12S,13R)-3,12-Dihydroxy-10,13-dimethylhexadecahydro-1H-cyclopenta[a]phenanthren-17-yl)-N-((1-(2-oxo-2-phenylethyl)-1H-1,2,3-triazol-4-yl)methyl)pentanamide] | 91.2% | 99.6% | 97.9% | 135 to 136 °C |
| Cc1ccc(C(=O)Cn2cc(CNC(=O)CC[C@@H](C)C3CCC4C5CCC6C[C@H](O)CC[C@]6(C)C5C[C@H](O)[C@@]43C)nn2)cc1 (stereo partly drawn) [6db, (4R)-4-((3R,10S,12S,13R)-3,12-Dihydroxy-10,13-dimethylhexadecahydro-1H-cyclopenta[a]phenanthren-17-yl)-N-((1-(2-oxo-2-(p-tolyl)ethyl)-1H-1,2,3-triazol-4-yl)methyl)pentanamide] | 78.7% | 53.7% | 89.4% | 112 to 115 °C |
| COc1ccc(C(=O)Cn2cc(CNC(=O)CC[C@@H](C)C3CCC4C5CCC6C[C@H](O)CC[C@]6(C)C5C[C@H](O)[C@@]43C)nn2)cc1 (stereo partly drawn) [6dc, (4R)-4-((3R,10S,12S,13R)-3,12-Dihydroxy-10,13-dimethylhexadecahydro-1H-cyclopenta[a]phenanthren-17-yl)-N-((1-(2-(4-methoxyphenyl)-2-oxoethyl)-1H-1,2,3-triazol-4-yl)methyl)pentanamide] | 68.5% | 64.9% | 86.5% | 114 to 115 °C |
